Test [1] concerns Wild type Saccharomyces cerevisiae cells (strain BY4741). The test can be described thus: Growth of yeast cells in the presence or absence of VPA and/or NaCl (absorbance at 550 nm). The test is classed as cell-based. The conditions noted are these: single agent (VPA or NaCl) in synthetic medium, 30° C. The protocol:
The combined effect of osmotic stress and valproate (VPA) is deleterious to yeast cells. Wild type Saccharomyces cerevisiae cells (strain BY4741) were grown in synthetic medium in the presence or absence of VPA and/or NaCl. Cells were incubated at 30° C., and growth was monitored spectrophotometrically by measuring absorbance at 550 nm.

The test system of test [2] is Candida albicans (Strain Sc 5314). Nature of the test: Hyphae formation in Candida cells, serum-induced (percentage of cells forming hyphal structures). The test is classed as cell-based. The conditions noted are these: in the presence of VPA. As to the method: Hyphae formation is at its peak after 3 hours of incubation at 37° C. at 200 rpm. An overnight culture of Candida albicans (Strain Sc 5314) was prepared using serum-free RPMI-64 medium. Cells were pelleted at 7,500×g and resuspended in RPMI-64 supplemented with 10% Fetal Bovine Serum (FBS) to induce hyphae formation. Cultures were incubated at 37° C. in a rotary shaker at 200 rpm. Samples were drawn out at one-hour intervals and observed for development of hyphal structures.
An overnight culture of C. albicans was prepared using serum-free RPMI-64 medium. Cells were pelleted at 7,500×g and resuspended in RPMI-64/10% FBS with or without 0.1M NaCl and/or 2 mM VPA as indicated. Cultures were incubated at 37° C. in a rotary shaker at 200 rpm for 3 hours. For each sample, 300-500 cells were counted and the percentage of cells forming hyphal structures was calculated. Values represent the mean of three independent experiments±S.E. (error bars).
An overnight culture of C. albicans was prepared using serum-free RPMI-64 medium. Cells were pelleted at 7,500×g and resuspended in RPMI-64/10% FBS with or without 0.1M sorbitol and/or 2 mM VPA as indicated. Cultures were incubated at 37° C. in a rotary shaker at 200 rpm for 3 hours. For each sample, 300-500 cells were counted and the percentage of cells forming hyphal structures was calculated. […]

On to `[Cl-].[Na+]` [NaCl, sodium chloride], for which the Growth decreased in test [1] stood at 50%. With `CCCC(CCC)C(=O)O` [VPA, Valproic acid (di-n-propyl acetic acid)], in test [2], the “Transformation of Candida yeast cells into hyphae forming cells” value is reported as “greatly reduced”. The compound further had a Growth decreased in test [1] of 50%.
